This is an account of results in PubChem BioAssay AID330 (DTP/NCI, 2004).

Several values for one entry are separate records, joined by “and”; a condition that tells them apart may be missing. Identical values can stand only once. Toxic doses and inconclusive results are not listed.

In the assay the test system is P388 leukemia ip, CD2F1 mice, survival T/C. The assay is described as follows: NCI In Vivo Anticancer Drug Screen. Data for tumor model P388 Leukemia (intraperitoneal) in CD2F1 (CDF1) mice. Particulars: endpoint: median survival time, higher = longer survival. The method, boiled down: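 Mice carrying the transplanted tumor received test compound or vehicle. Survival was recorded in each group, and the value is the treated-group measurement divided by that of the vehicle-treated control group.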

Setting [1] is: dose: 100.0 mg/kg/injection, schedule: Q01DX001 (ip), vehicle: saline with Tween-80.
The mark [2] stands for this setting: dose: 200.0 mg/kg/injection, schedule: Q01DX001 (ip), vehicle: saline with Tween-80.
Setting [3] is: dose: 50.0 mg/kg/injection, schedule: Q01DX009 (ip), vehicle: saline with Tween-80.
Setting [4] is: dose: 100.0 mg/kg/injection, schedule: Q01DX009 (ip), vehicle: saline with Tween-80.
The mark [5] stands for this setting: dose: 200.0 mg/kg/injection, schedule: Q01DX009 (ip), vehicle: saline with Tween-80.
[6] abbreviates: dose: 30.0 mg/kg/injection, schedule: Q01DX005 (ip), vehicle: saline with Tween-80.
Where [7] appears, read: dose: 60.0 mg/kg/injection, schedule: Q01DX005 (ip), vehicle: saline with Tween-80.
Setting [8] is: dose: 120.0 mg/kg/injection, schedule: Q01DX005 (ip), vehicle: saline with Tween-80.
Where [9] appears, read: dose: 240.0 mg/kg/injection, schedule: Q01DX005 (ip), vehicle: saline with Tween-80.
The mark [10] stands for this setting: dose: 50.0 mg/kg/injection, schedule: Q01DX005 (ip), vehicle: saline with Tween-80.
[11] abbreviates: dose: 100.0 mg/kg/injection, schedule: Q01DX005 (ip), vehicle: saline with Tween-80.
Setting [12] is: dose: 200.0 mg/kg/injection, schedule: Q01DX005 (ip), vehicle: saline with Tween-80.
The mark [13] stands for this setting: dose: 50.0 mg/kg/injection, schedule: Q01DX009 (ip), vehicle: Klucel (hydroxypropylcellulose) (HPC).
[14] abbreviates: dose: 100.0 mg/kg/injection, schedule: Q01DX009 (ip), vehicle: Klucel (hydroxypropylcellulose) (HPC).
[15] abbreviates: dose: 200.0 mg/kg/injection, schedule: Q01DX009 (ip), vehicle: Klucel (hydroxypropylcellulose) (HPC).

Consider `CC(C)(C)NC(=O)C(Cl)Cl`, for which the T/C reads like this: (dose: 50.0 mg/kg/injection, schedule: Q01DX001 (ip), vehicle: saline with Tween-80) 100 % of control; under setting [1], 100 % of control; under setting [2], 95 % of control.
`CCN(CC)CCN(CC)CC.O.[Cu+2].[O-][Cl+3]([O-])([O-])O`: the T/C by setting is: (dose: 3.12 mg/kg/injection, schedule: Q01DX009 (ip), vehicle: saline) 112 % of control; (dose: 6.25 mg/kg/injection, schedule: Q01DX009 (ip), vehicle: saline) 100 % of control; (dose: 12.5 mg/kg/injection, schedule: Q01DX009 (ip), vehicle: saline) 114 % of control.
Regarding `ClCCCCN(CCN(CCCCCl)c1ccccc1)c1ccccc1`, the T/C runs as follows: (dose: 12.5 mg/kg/injection, schedule: Q04DX002 (ip), vehicle: saline) 100 % of control; (dose: 25.0 mg/kg/injection, schedule: Q04DX002 (ip), vehicle: saline) 101 % of control.
With `C#CCOC(=O)C1CCCCC1`, the T/C reads like this: under setting [3], 110 % of control; under setting [4], 110 % of control; under setting [5], 112 % of control.
For `O=C1C(Br)=CC2C1C1C=CC2(Br)C1=O` (stereo unspecified), the T/C runs as follows: under setting [6], 105 % of control and 107 % of control; under setting [7], 111 % of control and 112 % of control and 118 % of control; under setting [8], 101 % of control and 111 % of control and 113 % of control; under setting [9], 120 % of control.
Take `COc1ccc(CC2C(=O)NC(C)C(=O)N(C)C3Cc4ccc(cc4)Oc4cc(ccc4OC(C)=O)CC(C(=O)NC(C)C(=O)NC(C)C(=O)N2C)N(C)C3=O)cc1` (stereo unspecified): the T/C (dose: 2.0 mg/kg/injection, schedule: Q01DX009 (ip), vehicle: none) was 167 % of control.
As for `COC(=O)c1cc(-c2ccc3ccccc3c2)[nH]c(=O)c1C#N`, the T/C runs as follows: under setting [6], 100 % of control; under setting [7], 91 % of control and 92 % of control; under setting [8], 96 % of control.
Consider `CN(C)C1=NS(=O)(=O)c2ccccc21`, for which the T/C reads like this: under setting [10], 100 % of control; under setting [11], 106 % of control; under setting [12], 93 % of control.
In the case of `COc1cc(/C=C/c2cccs2)oc(=O)c1`, the T/C runs as follows: under setting [13], 103 % of control; under setting [14], 103 % of control; under setting [15], 103 % of control.
As to `O=Nc1c(NO)n(-c2ccccc2)c(=S)n1-c1ccccc1`, the T/C is 95 % of control under setting [10], 109 % of control under setting [11] and 104 % of control under setting [12].
As to `Cc1ccc2c(c1)C(O)(CC(=O)c1ccccc1)C(=O)N2` (stereo unspecified), the T/C reads like this: under setting [3], 99 % of control; under setting [4], 96 % of control; under setting [5], 95 % of control.
Regarding `C[C@@H](CN1CC(=O)NC(=O)C1)N1CC(=O)NC(=O)C1`, the T/C is 108 % of control (dose: 0.06 mg/kg/injection, schedule: Q01DX009 (ip), vehicle: Klucel (hydroxypropylcellulose) (HPC)); 101 % of control (dose: 0.12 mg/kg/injection, schedule: Q01DX009 (ip), vehicle: Klucel (hydroxypropylcellulose) (HPC)); 111 % of control (dose: 0.25 mg/kg/injection, schedule: Q01DX009 (ip), vehicle: Klucel (hydroxypropylcellulose) (HPC)); 115 % of control (dose: 0.5 mg/kg/injection, schedule: Q01DX009 (ip), vehicle: Klucel (hydroxypropylcellulose) (HPC)); 121 % of control (dose: 1.0 mg/kg/injection, schedule: Q01DX009 (ip), vehicle: Klucel (hydroxypropylcellulose) (HPC)); 154 % of control (dose: 4.0 mg/kg/injection, schedule: Q01DX009 (ip), vehicle: Klucel (hydroxypropylcellulose) (HPC)). Moreover, the T/C reads like this: (dose: 8.0 mg/kg/injection, schedule: Q01DX009 (ip), vehicle: Klucel (hydroxypropylcellulose) (HPC)) 159 % of control; (dose: 16.0 mg/kg/injection, schedule: Q01DX005 (iv), vehicle: suspension in saline) 117 % of control; (dose: 16.0 mg/kg/injection, schedule: Q01DX009 (ip), vehicle: Klucel (hydroxypropylcellulose) (HPC)) 187 % of control; (dose: 25.0 mg/kg/injection, schedule: Q01DX009 (ip), vehicle: Klucel (hydroxypropylcellulose) (HPC)) 178 % of control; (dose: 32.0 mg/kg/injection, schedule: Q01DX005 (iv), vehicle: suspension in saline) 119 % of control; (dose: 32.0 mg/kg/injection, schedule: Q01DX009 (ip), vehicle: Klucel (hydroxypropylcellulose) (HPC)) 218 % of control. Moreover, the T/C was 166 % of control and 221 % of control under setting [13]; 218 % of control (dose: 64.0 mg/kg/injection, schedule: Q01DX009 (ip), vehicle: Klucel (hydroxypropylcellulose) (HPC)); 200 % of control under setting [14]; 161 % of control and 177 % of control (dose: 128.0 mg/kg/injection, schedule: Q01DX005 (ip), vehicle: suspension in saline); 229 % of control (dose: 128.0 mg/kg/injection, schedule: Q01DX009 (ip), vehicle: Klucel (hydroxypropylcellulose) (HPC)); 113 % of control and 92 % of control under setting [15]. The T/C (dose: 256.0 mg/kg/injection, schedule: Q01DX001 (ip), vehicle: Klucel (hydroxypropylcellulose) (HPC)) is 97 % of control; the T/C (dose: 256.0 mg/kg/injection, schedule: Q01DX005 (ip), vehicle: suspension in saline) is 194 % of control and 208 % of control; the T/C (dose: 256.0 mg/kg/injection, schedule: Q01DX005 (iv), vehicle: suspension in saline) is 171 % of control and 180 % of control; the T/C (dose: 400.0 mg/kg/injection, schedule: Q01DX009 (ip), vehicle: Klucel (hydroxypropylcellulose) (HPC)) was 92 % of control; the T/C (dose: 512.0 mg/kg/injection, schedule: Q01DX001 (ip), vehicle: Klucel (hydroxypropylcellulose) (HPC)) was 122 % of control; the T/C (dose: 512.0 mg/kg/injection, schedule: Q01DX005 (ip), vehicle: suspension in saline) was 177 % of control. Moreover, the T/C by setting is: (dose: 512.0 mg/kg/injection, schedule: Q01DX005 (iv), vehicle: suspension in saline) 171 % of control; (dose: 600.0 mg/kg/injection, schedule: Q04DX003 (ip), vehicle: saline) 205 % of control; (dose: 2048.0 mg/kg/injection, schedule: Q01DX001 (ip), vehicle: Klucel (hydroxypropylcellulose) (HPC)) 159 % of control.
In the case of `O=C(CC(O)(c1ccccc1)c1ccccc1)Sc1ccccc1`, the T/C was 110 % of control (dose: 100.0 mg/kg/injection, schedule: Q04DX003 (ip), vehicle: Klucel (hydroxypropylcellulose) (HPC)); 105 % of control (dose: 200.0 mg/kg/injection, schedule: Q04DX003 (ip), vehicle: Klucel (hydroxypropylcellulose) (HPC)); 105 % of control (dose: 400.0 mg/kg/injection, schedule: Q04DX003 (ip), vehicle: Klucel (hydroxypropylcellulose) (HPC)).
In the case of `CC(=O)OCCNc1n[nH]c(=O)c2cnccc12`, the T/C is 110 % of control under setting [6], 104 % of control under setting [7], 101 % of control under setting [8] and 103 % of control under setting [9].
As to `C1=CN2C3=NCCN3C3=NCCN3C2c2ccccc21` (stereo unspecified), the T/C was 102 % of control (dose: 12.5 mg/kg/injection, schedule: Q04DX002 (ip), vehicle: Klucel (hydroxypropylcellulose) (HPC)); 99 % of control (dose: 25.0 mg/kg/injection, schedule: Q04DX002 (ip), vehicle: Klucel (hydroxypropylcellulose) (HPC)); 102 % of control (dose: 50.0 mg/kg/injection, schedule: Q04DX002 (ip), vehicle: Klucel (hydroxypropylcellulose) (HPC)).
For `CCCCN=Cc1ccccc1`, the T/C is 100 % of control (dose: 100.0 mg/kg/injection, schedule: Q04DX003 (ip), vehicle: saline with Tween-80) and 100 % of control (dose: 200.0 mg/kg/injection, schedule: Q04DX003 (ip), vehicle: saline with Tween-80).
`CC(c1ccc(Cl)cc1)N(CCN(C)C)c1ccccn1` (stereo unspecified): the T/C reads like this: (dose: 15.0 mg/kg/injection, schedule: Q01DX005 (ip), vehicle: Klucel (hydroxypropylcellulose) (HPC)) 103 % of control; (dose: 30.0 mg/kg/injection, schedule: Q01DX005 (ip), vehicle: Klucel (hydroxypropylcellulose) (HPC)) 104 % of control; (dose: 60.0 mg/kg/injection, schedule: Q01DX005 (ip), vehicle: Klucel (hydroxypropylcellulose) (HPC)) 111 % of control and 95 % of control.
As to `CCOC(=O)C1=C(N)CCC2(C1)c1ccccc1-c1ccccc12`, the T/C was 97 % of control under setting [1]; 103 % of control under setting [2]; 93 % of control (dose: 400.0 mg/kg/injection, schedule: Q01DX001 (ip), vehicle: saline with Tween-80).
